Reference: ChEMBL document CHEMBL1133412, “Rational design, synthesis and structure-activity relationships of antitumor (E)-2-benzylidene-1-tetralones and (E)-2-benzylidene-1-indanones” (Bioorg Med Chem Lett, 2000)
Activity calls are given as the source filed them. No cut-off for these calls is given here.

What was measured:
Assay type in all cases: functional, cell-based
L1210 [1] = experiment: Cytotoxicity was evaluated against L1210 tumor cell lines; Inactive; settings: Mus musculus
MCF7 [2] = experiment: Cytotoxicity was evaluated against MCF-7 tumor cell lines; Inactive; settings: Homo sapiens
NIH3T3 [3] = experiment: Cytotoxicity was evaluated against NIH3T3 tumor cell lines; Inactive; settings: Mus musculus
WIL2 [4] = experiment: Cytotoxicity was evaluated against WIL2 tumor cell lines; Inactive; settings: Homo sapiens
Jurkat = experiment: In vitro test for antitumor activity against human Jurkat cell line using a formazan dye (MTT) conversion assay.
CCRF-CEM [5] = experiment: Cytotoxicity was evaluated against CEM tumor cell lines; Inactive; settings: Homo sapiens
MOLT-4 [6] = experiment: Cytotoxicity was evaluated against Molt-4 tumor cell lines; Inactive; settings: Homo sapiens
WI-38 [7] = experiment: Cytotoxicity was evaluated against WI38 tumor cell lines; Inactive; settings: Homo sapiens
HL-60 [8] = experiment: Cytotoxicity was evaluated against HL-60 tumor cell lines; Inactive; settings: Homo sapiens
A549 [9] = experiment: Cytotoxicity was evaluated against A549 tumor cell lines; Inactive; settings: Homo sapiens
B16 [10] = experiment: Cytotoxicity was evaluated against B16 tumor cell lines; Inactive; settings: Mus musculus
NCI-H596 [11] = experiment: Cytotoxicity was evaluated against H596 tumor cell lines; Inactive; settings: Homo sapiens
K562 [12] = experiment: Cytotoxicity was evaluated against K562 tumor cell lines; Inactive; settings: Homo sapiens
NCI-H292 [13] = experiment: Cytotoxicity was evaluated against H292 tumor cell lines; Inactive; settings: Homo sapiens
WI-38 [14] = experiment: Cytotoxicity evaluated against WI38 tumor cell lines; Significant activity; settings: Homo sapiens
NIH3T3 [15] = experiment: Cytotoxicity evaluated against NIH3T3 tumor cell lines; Significant activity; settings: Mus musculus
NCI-H596 [16] = experiment: Cytotoxicity evaluated against H596 tumor cell lines; Significant activity; settings: Homo sapiens
MCF7 [17] = experiment: Cytotoxicity evaluated against MCF-7 tumor cell lines; Significant activity; settings: Homo sapiens
A549 [18] = experiment: Cytotoxicity evaluated against A549 tumor cell lines; significant activity; settings: Homo sapiens
B16 [19] = experiment: Cytotoxicity was evaluated against B16 tumor cell lines; Significant activity; settings: Mus musculus
NCI-H292 [20] = experiment: Cytotoxicity evaluated against H292 tumor cell lines; Significant activity; settings: Homo sapiens
L1210 [21] = experiment: Cytotoxicity evaluated against L1210 tumor cell lines; Significant activity; settings: Mus musculus
WIL2 [22] = experiment: Cytotoxicity evaluated against WIL2 tumor cell lines; Significant activity; settings: Homo sapiens
CCRF-CEM [23] = experiment: Cytotoxicity evaluated against CEM tumor cell lines; Significant activity; settings: Homo sapiens
HL-60 [24] = experiment: Cytotoxicity evaluated against HL-60 tumor cell lines; Significant activity; settings: Homo sapiens
MOLT-4 [25] = experiment: Cytotoxicity was evaluated against Molt-4 tumor cell lines; settings: Homo sapiens
K562 [26] = experiment: Cytotoxicity evaluated against K562 tumor cell lines; Significant activity; settings: Homo sapiens

| Structure (SMILES) | IC50 (Jurkat) | Cytotoxicity (L1210 [1]) | Cytotoxicity (MCF7 [2]) | Cytotoxicity (NIH3T3 [3]) | Cytotoxicity (WIL2 [4]) | Cytotoxicity (CCRF-CEM [5]) | Cytotoxicity (MOLT-4 [6]) | Cytotoxicity (WI-38 [7]) | Cytotoxicity (HL-60 [8]) | Cytotoxicity (A549 [9]) | Cytotoxicity (B16 [10]) | Cytotoxicity (NCI-H596 [11]) | Cytotoxicity (K562 [12]) | Cytotoxicity (NCI-H292 [13]) | Cytotoxicity (WI-38 [14]) | Cytotoxicity (NIH3T3 [15]) | Cytotoxicity (NCI-H596 [16]) | Cytotoxicity (MCF7 [17]) | Cytotoxicity (A549 [18]) | Cytotoxicity (B16 [19]) | also measured |
| --- | --- | --- | --- | --- | --- | --- | --- | --- | --- | --- | --- | --- | --- | --- | --- | --- | --- | --- | --- | --- | --- |
| COc1cc2c(cc1OC)C(=O)/C(=C/c1c(OC)cccc1OC)CC2 | > 50 µM | inactive | inactive | inactive | inactive | inactive | inactive | inactive | inactive | inactive | inactive | inactive | inactive | inactive | – | – | – | – | – | – | – |
| O=C1/C(=C/c2cc(Cl)cc(Cl)c2)Cc2cc(O)c(O)cc21 | > 50 µM | inactive | inactive | inactive | inactive | inactive | inactive | inactive | inactive | inactive | inactive | inactive | inactive | inactive | – | – | – | – | – | – | – |
| COc1cc2c(cc1OC)C(=O)/C(=C/c1ccc(O)c(C(=O)O)c1)CC2 | > 50 µM | inactive | inactive | inactive | inactive | inactive | inactive | inactive | inactive | inactive | inactive | inactive | inactive | inactive | – | – | – | – | – | – | – |
| COc1ccc(/C=C2\CCc3cc(OC)c(OC)cc3C2=O)cc1 | > 50 µM | inactive | inactive | inactive | inactive | inactive | inactive | inactive | inactive | inactive | inactive | inactive | inactive | inactive | – | – | – | – | – | – | – |
| Cc1cc(/C=C2\Cc3cc4c(cc3C2=O)OCO4)cc(C)c1O | > 50 µM | inactive | inactive | inactive | inactive | inactive | inactive | inactive | inactive | inactive | inactive | inactive | inactive | inactive | – | – | – | – | – | – | – |
| COc1ccc2c(c1)C/C(=C\c1cc(C)c(O)c(C)c1)C2=O | > 50 µM | inactive | inactive | inactive | inactive | inactive | inactive | inactive | inactive | inactive | inactive | inactive | inactive | inactive | – | – | – | – | – | – | – |
| COc1cc2c(cc1OC)C(=O)/C(=C/c1cc([N+](=O)[O-])ccc1O)C2 | 14.5 µM | – | – | – | – | – | – | – | – | – | – | – | – | – | Significant activity | Significant activity | Significant activity | Significant activity | Significant activity | Significant activity | Cytotoxicity (NCI-H292 [20]): Significant activity; Cytotoxicity (L1210 [21]): Significant activity; Cytotoxicity (WIL2 [22]): Significant activity; Cytotoxicity (CCRF-CEM [23]): Significant activity; Cytotoxicity (HL-60 [24]): Significant activity; Cytotoxicity (MOLT-4 [25]): Significant activity; Cytotoxicity (K562 [26]): Significant activity |
| COc1cc2c(cc1OC)C(=O)/C(=C/c1cc(F)cc(F)c1)C2 | 19 µM | – | – | – | – | – | – | – | – | – | – | – | – | – | Significant activity | Significant activity | Significant activity | Significant activity | Significant activity | Significant activity | Cytotoxicity (NCI-H292 [20]): Significant activity; Cytotoxicity (L1210 [21]): Significant activity; Cytotoxicity (WIL2 [22]): Significant activity; Cytotoxicity (CCRF-CEM [23]): Significant activity; Cytotoxicity (HL-60 [24]): Significant activity; Cytotoxicity (MOLT-4 [25]): Significant activity; Cytotoxicity (K562 [26]): Significant activity |

Continued, in another order:

| IC50 (Jurkat) | Structure (SMILES) | Cytotoxicity (L1210 [1]) | Cytotoxicity (MCF7 [2]) | Cytotoxicity (NIH3T3 [3]) | Cytotoxicity (WIL2 [4]) | Cytotoxicity (CCRF-CEM [5]) | Cytotoxicity (MOLT-4 [6]) | Cytotoxicity (WI-38 [7]) | Cytotoxicity (HL-60 [8]) | Cytotoxicity (A549 [9]) | Cytotoxicity (B16 [10]) | Cytotoxicity (NCI-H596 [11]) | Cytotoxicity (K562 [12]) | Cytotoxicity (NCI-H292 [13]) | Cytotoxicity (WI-38 [14]) | Cytotoxicity (NIH3T3 [15]) | Cytotoxicity (NCI-H596 [16]) | Cytotoxicity (MCF7 [17]) | Cytotoxicity (A549 [18]) | Cytotoxicity (B16 [19]) | also measured |
| --- | --- | --- | --- | --- | --- | --- | --- | --- | --- | --- | --- | --- | --- | --- | --- | --- | --- | --- | --- | --- | --- |
| > 50 µM | COc1ccc(/C=C2\CCc3cc(OC)c(OC)cc3C2=O)c(OC)c1 | inactive | inactive | inactive | inactive | inactive | inactive | inactive | inactive | inactive | inactive | inactive | inactive | inactive | – | – | – | – | – | – | – |
| > 50 µM | COc1ccc2c(c1)C(=O)/C(=C/c1cc(C)c(O)c(C)c1)C2 | inactive | inactive | inactive | inactive | inactive | inactive | inactive | inactive | inactive | inactive | inactive | inactive | inactive | – | – | – | – | – | – | – |
| > 50 µM | COc1cc2c(c([N+](=O)[O-])c1OC)C(=O)/C(=C/c1cc(C)c(O)c(C)c1)C2 | inactive | inactive | inactive | inactive | inactive | inactive | inactive | inactive | inactive | inactive | inactive | inactive | inactive | – | – | – | – | – | – | – |
| 8 µM | COc1cc2c(cc1OC)C(=O)/C(=C/c1cccc(Cl)c1)C2 | – | – | – | – | – | – | – | – | – | – | – | – | – | Significant activity | Significant activity | Significant activity | Significant activity | Significant activity | Significant activity | Cytotoxicity (NCI-H292 [20]): Significant activity; Cytotoxicity (L1210 [21]): Significant activity; Cytotoxicity (WIL2 [22]): Significant activity; Cytotoxicity (CCRF-CEM [23]): Significant activity; Cytotoxicity (HL-60 [24]): Significant activity; Cytotoxicity (MOLT-4 [25]): Significant activity; Cytotoxicity (K562 [26]): Significant activity |
| 6.3 µM | COc1cc2c(cc1OC)C(=O)/C(=C/c1cc(C)c(OCC(=O)O)c(C)c1)C2 | – | – | – | – | – | – | – | – | – | – | – | – | – | Significant activity | Significant activity | Significant activity | Significant activity | Significant activity | Significant activity | Cytotoxicity (NCI-H292 [20]): Significant activity; Cytotoxicity (L1210 [21]): Significant activity; Cytotoxicity (WIL2 [22]): Significant activity; Cytotoxicity (CCRF-CEM [23]): Significant activity; Cytotoxicity (HL-60 [24]): Significant activity; Cytotoxicity (MOLT-4 [25]): Significant activity; Cytotoxicity (K562 [26]): Significant activity |
| 19 µM | COc1cc2c(cc1OC)C(=O)/C(=C/c1ccc(O)cc1)CC2 | – | – | – | – | – | – | – | – | – | – | – | – | – | Significant activity | Significant activity | Significant activity | Significant activity | Significant activity | Significant activity | Cytotoxicity (NCI-H292 [20]): Significant activity; Cytotoxicity (L1210 [21]): Significant activity; Cytotoxicity (WIL2 [22]): Significant activity; Cytotoxicity (CCRF-CEM [23]): Significant activity; Cytotoxicity (HL-60 [24]): Significant activity; Cytotoxicity (MOLT-4 [25]): Significant activity; Cytotoxicity (K562 [26]): Significant activity |
| 9 µM | COc1cc2c(cc1OC)C(=O)/C(=C/c1cccc([N+](=O)[O-])c1)CC2 | – | – | – | – | – | – | – | – | – | – | – | – | – | Significant activity | Significant activity | Significant activity | Significant activity | Significant activity | Significant activity | Cytotoxicity (NCI-H292 [20]): Significant activity; Cytotoxicity (L1210 [21]): Significant activity; Cytotoxicity (WIL2 [22]): Significant activity; Cytotoxicity (CCRF-CEM [23]): Significant activity; Cytotoxicity (HL-60 [24]): Significant activity; Cytotoxicity (MOLT-4 [25]): Significant activity; Cytotoxicity (K562 [26]): Significant activity |
